Results: the METLIN SMRT retention time set (Domingo-Almenara et al. 2019)

Experiment: gradient 5% acetonitrile 3 min, to 50% in 2 min, to 85% in 15 min, held 3 min, 100 µL/min
Settings: column: Zorbax Extend-C18 2.1 x 50 mm; eluents: water / acetonitrile, 0.1% formic acid
How it was run: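 A Zorbax Extend-C18 column (2.1 × 50 mm, 1.8 μm) run at 100 μL/min with water and acetonitrile, both containing 0.1% formic acid, separated mixtures of ~100 pure standards. The HPLC was coupled to a quadrupole time-of-flight mass spectrometer operated in positive and negative ionization mode, with dead and dwell volumes of 40 μL and 900 μL. Each retention time was taken from a computationally picked adduct peak that was then manually inspected.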

With `CN(C)c1ccc(-c2nc(-c3cn(-c4ccc(F)cc4)nn3)no2)cc1` the RP-LC retention time was 1060 s.

`Cc1nc(N2CCOCC2)c2c(C(=O)Nc3cccc(Cl)c3)c(C)oc2n1` showed an RP-LC retention time of 890 s.

Work on `O=C(Cc1ccc(S(=O)(=O)N2CCN(c3ccccn3)CC2)s1)N1CCOCC1` yielded an RP-LC retention time of 1260 s.

With `COCCOCc1nc(C2CCCCN2C(=O)NC(C)C)no1` (stereo not drawn) the RP-LC retention time was 667 s.

Work on `CC[C@@H](C)[C@@H](O)[C@H](C)C(=O)[C@H](C)/C=C(\C)C[C@H](C)[C@@H]1OC(=O)[C@H]1CC` yielded an RP-LC retention time of 1250 s.

In the case of `Cc1ccccc1NC(=O)N1CCN(Cc2cn(C)c3ccccc23)CC1`, the RP-LC retention time is reported as 589 s.

`Cc1c(C(=O)N2CCN(C)CC2)cnn1-c1cc(-c2nc(C3CC3)no2)ccn1` showed an RP-LC retention time of 630 s.

Work on `COC(=O)C1CCN(S(=O)(=O)CCCOc2cccc3c2OC(C)(C)C3)CC1` yielded an RP-LC retention time of 936 s.

In the case of `COc1ccc2c(c1)C1(CCN(C(=O)c3ccc(F)cc3)C1)C(=O)N2` (stereo not drawn), the RP-LC retention time is reported as 714 s.

In the case of `Cc1ccc(CNC(=O)C2CCCN(C(=O)c3[nH]c(C)cc3C)C2)cc1` (stereo not drawn), the RP-LC retention time is reported as 804 s.

In the case of `Cc1occc1C(=O)Nc1nc(-c2ccc(C(C)(C)C)cc2)cs1`, the RP-LC retention time is reported as 1300 s.

With `CCNC(=O)N(CCOC)CC(=O)N1CCc2sccc2C1COc1ccccc1` (stereo not drawn) the RP-LC retention time was 815 s.

Molecule `Cn1c(C(=O)NCc2ccc(F)cc2)cc2sccc21` has an RP-LC retention time of 663 s.

In the case of `c1ccc(Cn2c(-c3ccc(OC[C@H](C4CCNCC4)n4c(-c5ccccc5)nc5ccccc54)cc3)nc3ccccc32)cc1`, the RP-LC retention time is reported as 692 s.

`Cc1ccc(NC(=O)C2CCc3nc(N4CCOCC4)ncc3C2)cc1Cl` (stereo not drawn) showed an RP-LC retention time of 880 s.

Molecule `COCCn1cc2c3c(cccc31)CN(C(=O)Cc1ccccc1Cl)CC2` has an RP-LC retention time of 975 s.

`CCN1C(=O)c2cc(C(=O)Nc3cccc(Cl)c3)nn2CC1(C)C(=O)NC1CCCC1` (stereo not drawn) showed an RP-LC retention time of 887 s.

In the case of `CCCNC(=O)C1CCCN(c2ccc(SCC(=O)Nc3ccc4c(c3)OCO4)nn2)C1` (stereo not drawn), the RP-LC retention time is reported as 642 s.

With `O=S(=O)(c1ccc2nc(N3CCN(C4CCCCC4)CC3)ccc2c1)N1CCCCC1` the RP-LC retention time was 734 s.

`Cc1ccc(CNC(=O)C(C)C2CCOCC2)o1` (stereo not drawn) gave an RP-LC retention time of 677 s.

For `CCOc1cc(S(=O)(=O)Nc2cccc(C)n2)c(C)cc1C`, the RP-LC retention time was 779 s.

`O=C(c1ccccc1Br)N1CCN=C1N1CCN(c2ccccc2F)CC1` showed an RP-LC retention time of 757 s.

`Cc1cccc(NC(=O)/C=C/c2ccc([N+](=O)[O-])cc2)c1` gave an RP-LC retention time of 878 s.

`CCc1ccc(CNC(=O)CCc2c(-c3ccc(Br)cc3)nc3ccccn23)cc1` showed an RP-LC retention time of 753 s.

`C#CCOCC1CCN(C(=O)CSCc2ccccc2)CC1` gave an RP-LC retention time of 850 s.

`COc1ccc(-n2nc(C(=O)N3CCN(c4ccccn4)CC3)c(=O)n(C)c2=O)cc1` gave an RP-LC retention time of 623 s.

For `COc1ccccc1NC(=O)Cn1nc2c(N(C)C3CCCCC3)nccn2c1=O`, the RP-LC retention time was 778 s.

`Cn1cnc2cc(CNC(=O)c3cccc(Cl)c3)ccc21` showed an RP-LC retention time of 631 s.

Work on `Cc1ccc(NC(=O)N2CCN(c3cnn4c(C)nnc4c3)CC2)cc1` yielded an RP-LC retention time of 563 s.

With `COc1ccc(C(=O)NCc2c(C)noc2C)c(OC)c1` the RP-LC retention time was 693 s.

Molecule `COc1ccc(NC(=O)Cn2ncc3c(c2=O)N(CC2CC2)C(=O)CS3)cc1Cl` has an RP-LC retention time of 808 s.

In the case of `O=C(Cn1nc2c(N3CCCCCC3)nccn2c1=O)Nc1ccccc1Cl`, the RP-LC retention time is reported as 708 s.

`CCN(CC)C(=O)Cn1nc2nc(Nc3ccc(F)cc3)ccn2c1=O` showed an RP-LC retention time of 669 s.

`Cc1cc(=O)n(CC(=O)Nc2cccc(C#N)c2)c(N2CCOCC2)n1` showed an RP-LC retention time of 604 s.

For `CC(C)c1ccc(NC(=O)CN2C(=O)CC(C)(C)S(=O)(=O)c3ccccc32)cc1`, the RP-LC retention time was 898 s.

Work on `CC(C)Sc1ccc(CC(=O)NCC(C)(O)c2ccccc2)cc1` (stereo not drawn) yielded an RP-LC retention time of 841 s.

Molecule `CC(C)Oc1ccc(CNC(=O)C2=Cc3ccccc3OC2)cc1` has an RP-LC retention time of 1040 s.

In the case of `Cc1ccc2c(c1)N(Cc1nc(C3CC3)no1)N=C(C(=O)N1CCC(C)CC1)S2(=O)=O`, the RP-LC retention time is reported as 992 s.

Molecule `COc1ccc(N2CCN(c3nnc(-c4nnc(C)o4)c4ccccc34)CC2)cc1` has an RP-LC retention time of 744 s.

Work on `COc1cccc(NC(=O)Nc2cccc(-c3ccc(N4CCOCC4)nn3)c2)c1` yielded an RP-LC retention time of 672 s.

For `COc1ccc(NC(=O)N2CCC3(CC2)CN(c2ccccc2)C3=O)cc1OC`, the RP-LC retention time was 771 s.

`O=C(Cc1ccsc1)N1CCCn2cc(-c3ccccc3F)nc21` gave an RP-LC retention time of 784 s.

With `NC(N)=NCc1cccc(I)c1` the RP-LC retention time was 442 s.

`COCc1cc2nn(CC(=O)Nc3ccc(C)cc3F)c(=O)n2c(-c2ccccc2)n1` gave an RP-LC retention time of 858 s.

In the case of `Cc1ccc(NC(=O)c2cc(C(C)C)n(C3CCS(=O)(=O)C3)n2)cc1C` (stereo not drawn), the RP-LC retention time is reported as 949 s.

`COc1ccccc1N1CCN(C(=O)c2cc3c(=O)n(C)ccc3n2C)CC1` gave an RP-LC retention time of 651 s.

Work on `O=C(C1CCN(S(=O)(=O)c2ccc(-c3noc(-c4ccccn4)n3)cc2)CC1)N1CCCC1` yielded an RP-LC retention time of 792 s.

In the case of `O=C(Nc1ccc(C(=O)N2CCC(C(=O)NC3CCCCC3)CC2)cc1)c1ccc(Cl)cc1`, the RP-LC retention time is reported as 835 s.

For `CN1C(=O)C2CCCCN2c2ccc(C(=O)NCCCc3ccccc3)cc21` (stereo not drawn), the RP-LC retention time was 939 s.

`CC(C)n1nc(CNC(=O)C2CCN(S(=O)(=O)c3ccccc3)CC2)c2ccccc21` showed an RP-LC retention time of 918 s.

Work on `CCC(C)NC(=O)c1cnn(-c2cc(-c3nc(C(C)C)no3)ccn2)c1C` (stereo not drawn) yielded an RP-LC retention time of 617 s.

Molecule `CCn1c(=O)c(N2CCCC(C(=O)N3CCN(c4cc(Cl)ccc4C)CC3)C2)nc2ccccc21` (stereo not drawn) has an RP-LC retention time of 1420 s.

For `O=C(Nc1ccc2c(c1)OCCO2)N1c2ccccc2CC1c1nc(C2CC2)no1` (stereo not drawn), the RP-LC retention time was 966 s.

In the case of `O=C(NCc1ccco1)C1CCCN(c2nc3ccccc3[nH]c2=O)C1` (stereo not drawn), the RP-LC retention time is reported as 721 s.

Work on `CCOC(=O)c1[nH]c(C)c(CCC(=O)N2CCCC(C(=O)NC3CCCC3)C2)c1C` (stereo not drawn) yielded an RP-LC retention time of 746 s.

`Cn1c(C2CCN(S(C)(=O)=O)CC2)nn(Cc2ccc(Cl)c(Cl)c2)c1=O` showed an RP-LC retention time of 739 s.

Work on `Cn1nc(C(=O)N2CCCCC2)c2c1CCN(C(=O)Nc1ccc3c(c1)OCO3)C2` yielded an RP-LC retention time of 717 s.

`Cc1ccc(-c2nc(NC(=O)Cc3csc(-c4ccccc4)n3)sc2C)cc1` gave an RP-LC retention time of 1250 s.

In the case of `O=C(Nc1nnc(-c2ccsc2)o1)c1ccc2nsnc2c1`, the RP-LC retention time is reported as 698 s.

Work on `CC1CCC(NC(=O)c2nnc(-c3ccc(S(=O)(=O)N4CCCC4)cc3)o2)CC1` (stereo not drawn) yielded an RP-LC retention time of 1020 s.

Work on `O=C(Cc1c[nH]c2ccccc12)N1CCC(c2noc(-c3ccccc3)n2)CC1` yielded an RP-LC retention time of 914 s.

Work on `Cc1nc2cc(-c3noc(Cc4cccs4)n3)ccc2n(C2CCCC2)c1=O` yielded an RP-LC retention time of 1200 s.

`CCc1nc2cccnc2n1-c1ccc(C(=O)N(C)C)cc1` showed an RP-LC retention time of 589 s.

In the case of `CCN1CCC2(CC1)NC(=O)N(CC(=O)Nc1ccc(OC(F)(F)F)cc1)C2=O`, the RP-LC retention time is reported as 582 s.

With `O=C(CN1CCN(Cc2ccccc2F)C1=O)NCc1ccc(N2CCCC2)cc1` the RP-LC retention time was 783 s.

Work on `CN1CCN(c2ccc(Nc3cc(-c4cccc(-n5ccc6cc(C7CC7)cc(F)c6c5=O)c4CO)cn(C)c3=O)nc2)CC1` yielded an RP-LC retention time of 702 s.

In the case of `CN(CCNC(=O)c1c2c(cn(-c3ccccc3)c1=O)C(=O)CC(C)(C)C2)C1CCCCC1`, the RP-LC retention time is reported as 720 s.

For `Cc1nc2c(NC(=O)c3ccc(C(F)(F)F)s3)cccn2n1`, the RP-LC retention time was 900 s.

`Cc1ccccc1-c1noc(CCn2nc(-c3ccc4c(c3)OCO4)ccc2=O)n1` showed an RP-LC retention time of 945 s.

`CCN(CC)C(=O)N1CC(Oc2ccccc2-c2nc(-c3cnccn3)no2)C1` showed an RP-LC retention time of 784 s.

Molecule `O=C(NCCc1c[nH]c2ccccc12)c1cc(-c2ccccn2)nc2ccccc12` has an RP-LC retention time of 868 s.

With `O=C(c1cccc2ccccc12)N1CCN(c2ccc(Nc3ccncc3)nn2)CC1` the RP-LC retention time was 554 s.

With `CCC(C(=O)NCc1ccc2c(c1)OCO2)n1ccc2cc(S(=O)(=O)N3CCCCC3)ccc21` (stereo not drawn) the RP-LC retention time was 1020 s.

With `CCN(CC)C(=O)N1CC(n2cc(C(=O)N(C)CCOC)nn2)C1` the RP-LC retention time was 624 s.

Work on `O=C(CN1c2ccc(F)cc2-c2ccccc2S1(=O)=O)NCc1ccccc1` yielded an RP-LC retention time of 939 s.

In the case of `NS(=O)(=O)c1ccc(NC(=O)CC2Sc3ccc(C(F)(F)F)cc3NC2=O)cc1` (stereo not drawn), the RP-LC retention time is reported as 722 s.

Molecule `CCc1nc(-c2ccc3c(c2)CCN3C(=O)Cc2ccc(NC(C)=O)cc2)no1` has an RP-LC retention time of 796 s.

With `COc1ccc(S(=O)(=O)N2CCN(c3cnn4c(C)nnc4c3)CC2)cc1` the RP-LC retention time was 670 s.

For `C#CCOCC1CCN(C(=O)c2cc(-c3cccs3)[nH]n2)CC1`, the RP-LC retention time was 734 s.

`CNc1cc(-c2ccccc2)[nH]n1` gave an RP-LC retention time of 553 s.

With `COc1ccc(S(=O)(=O)NCCc2noc(C)n2)cc1` the RP-LC retention time was 709 s.

In the case of `CCOC(=O)N1CCN(c2cnc3cc(S(=O)(=O)N4CCCCC4)ccc3n2)CC1`, the RP-LC retention time is reported as 891 s.

`Cc1ccc(CNC(=O)C2(C)CN(S(=O)(=O)c3ccccc3)CC(=O)N2c2cccc(F)c2)cc1` (stereo not drawn) showed an RP-LC retention time of 962 s.

Work on `O=C(O)CN1CCCc2nc(-c3ccccc3)ncc2C1=O` yielded an RP-LC retention time of 716 s.

In the case of `CCCNc1cc(N2CCC(CCC(=O)NCc3ccc(F)cc3)CC2)ncn1`, the RP-LC retention time is reported as 686 s.

In the case of `Cc1ccc(CNC(=O)CN2C(=O)C3CCCCN3c3ccc(S(=O)(=O)N(C)C)cc32)o1` (stereo not drawn), the RP-LC retention time is reported as 867 s.

Molecule `CN(C)C(=O)COC(=O)Cc1ccc(OC(=O)c2ccc(N=C(N)N)cc2)cc1` has an RP-LC retention time of 651 s.

`COc1ccc(NC(=O)C2c3cc(OC)c(OC)cc3C(=O)N(C)C2c2cccnc2)c(OC)c1` (stereo not drawn) gave an RP-LC retention time of 655 s.
